Structures can show the parent of a compound that is named as a salt. Where two headings read alike, the source gives them in different places.
Legend:
Assay type in all cases: cell-based
xpt-G17 riboswitch = experiment: Luciferase reporter assay, xpt-G17 riboswitch, transfected HEK 293 cells; conditions: for fold induction at 100 µM: HEK293, xpt-G17 riboswitch, Prestwick library compounds at 100 μM, HEK 293; for fold induction at 100 µM / response of guanine riboswitch xpt-G17 to compound (FIG. 1e): preliminary screen; for response of guanine riboswitch xpt-G17 to compound (FIG. 1e): Prestwick library at 100 μM
From the text: (§1) A truncated human beta-globin intron sequence was synthesized and inserted in the coding sequence of a firefly luciferase gene. A mutant human DHFR exon 2 was synthesized and inserted in the middle of this truncated beta-globin intron sequence using Golden gate cloning strategy. Aptamers including xpt-G/A^1, ydhl-G/A^2, yxj^3, add^4, gdg6-G/A^5 (citations for the aptamers are incorporated herein by reference) were synthesized as oligonucleotides (“oligos”) with 4 nucleotide overhang at the 5′ end that are complementary to two different BsaI sites individually (IDT), annealed and ligated to BsaI-digested mDHFR-Luci-acceptor vector.
(§2) 3.5×10^4 HEK 293 cells were plated in a 96-well flat bottom plate the day before transfection. Plasmid DNA (500 ng) was added to a tube or a 96-well U-bottom plate. Separately, TransIT-293 reagent (Mirus; 1.4 μL) was added to 50 μL Opti-mem I media (Life Technologies), and allowed to sit for 5 minutes at room temperature (RT). Then, 50 μL of this diluted transfection reagent was added to the DNA, mixed, and incubated at RT for 20 min. Finally, 7 μL of this solution was added to a well of cells in the 96-well plate.
(§3) 24 hours after media change, plates were removed from the incubator, and equilibrated to RT for several minutes on a lab bench, then aspirated. Glo-lysis buffer (Promega, 100 μL, RT) was added, and the plates maintained at RT for at least 5 minutes. Then, the well contents were mixed by 50 μL trituration, and 20 μL of each sample was mixed with 20 μL of bright-glo reagent (Promega) that had been diluted to 10% in glo-lysis buffer. 96 wells were spaced on an opaque white 384-well plate. Following a 5 min incubation at RT, luminescence was measured using a Tecan machine with 500 mSec read time. The luciferase activity was expressed as mean relative light unit (RLU)±S.D., and fold induction was calculated as the luciferase activity obtained with guanine treatment divided by luciferase activity obtained without guanine treatment.

add-G6 riboswitch = experiment: cells; conditions: for fold induction at 100 µM: Homo sapiens
From the text: as §1
as §2, with “Separately, TransIT-293 reagent (Mirus; 1.4 μL) was added to 50 μL Opti-mem I media (Life Technologies), and allowed to sit for 5 minutes at room temperature (RT).” left out
as §3, with “The luciferase activity was expressed as mean relative light unit (RLU)±S.D., and fold induction was calculated as the luciferase activity obtained with guanine treatment divided by luciferase activity obtained without guanine treatment.” left out

ydhl-G8 riboswitch = experiment: Luciferase reporter assay, ydhl-G8 riboswitch, transfected HEK 293 cells; conditions: Homo sapiens
From the text: as §1
as §2, with “Separately, TransIT-293 reagent (Mirus; 1.4 μL) was added to 50 μL Opti-mem I media (Life Technologies), and allowed to sit for 5 minutes at room temperature (RT).” left out
as §3

gdg6-A8 riboswitch = experiment: Luciferase reporter assay, gdg6-A8 riboswitch, transfected HEK 293 cells; conditions: for fold induction at 100 µM: Homo sapiens, HEK293, gdg6-A8 riboswitch, Prestwick library compounds at 100 μM, HEK 293
From the text: Riboswitches were constructed as described in PCT/US2016/016234 (in particular Examples 3 to 6), incorporated herein by reference. A truncated human beta-globin intron sequence was synthesized and inserted in the coding sequence of a firefly luciferase gene. A mutant human DHFR exon 2 was synthesized and inserted in the middle of this truncated beta-globin intron sequence using Golden gate cloning strategy. Aptamers including xpt-G/A^1, ydhl-G/A^2, yxj^3, add^4, gdg6-G/A^5 (citations for the aptamers are incorporated herein by reference) were synthesized as oligonucleotides (“oligos”) with 4 nucleotide overhang at the 5′ end that are complementary to two different BsaI sites individually (IDT), annealed and ligated to BsaI-digested mDHFR-Luci-acceptor vector.
as §2, §3

[1] = HEK293, read-out: Fold Induction of luciferase activity
[2] = HEK293, add-G6 riboswitch, Prestwick library compounds at 100 μM, HEK 293, read-out: Fold Induction of luciferase activity
[3] = add-G6 riboswitch, Prestwick library compounds at 100 μM, HEK 293

With `Nc1ncnc2c1ncn2[C@@H]1O[C@H](COP(=O)(O)O)[C@@H](O)[C@H]1O.O` [Adenosine 5′-monophosphate monohydrate] the fold induction at 100 µM (xpt-G17 riboswitch; Homo sapiens) was 28.4, the “response of guanine riboswitch xpt-G17 to compound (FIG. 1e)” value (from here on “response of guanine riboswitch xpt-G17”) (xpt-G17 riboswitch) was “responded” and the fold induction at 100 µM (add-G6 riboswitch; [1]) was 9.4. It also gave a fold induction at 100 µM (ydhl-G8 riboswitch; [1]) of 5.9.

In the case of `CN1CCCC(n2nc(Cc3ccc(Cl)cc3)c3ccccc3c2=O)CC1` (centres unmarked) [Azelastine hydrochloride], the fold induction at 100 µM (ydhl-G8 riboswitch; HEK293, ydhl-G8 riboswitch, Prestwick library compounds at 100 μM, HEK 293, read-out: Fold Induction of luciferase activity) is reported as 3.

`NC(=NCc1ccccc1)NC(=O)c1nc(Cl)c(N)nc1N` [Benzamil hydrochloride] showed a fold induction at 100 µM (add-G6 riboswitch; [2]) of 3.

In the case of `CC(C)COCC(CN(Cc1ccccc1)c1ccccc1)N1CCCC1` (centres unmarked) [Bepridil hydrochloride], the fold induction at 100 µM (add-G6 riboswitch; [2]) is reported as 4.4.

For `CC[C@@]1(O)C(=O)OCc2c1cc1n(c2=O)Cc2cc3ccccc3nc2-1` [Camptothecine (S, +)], the “Fold Induction of luciferase activity” value (add-G6 riboswitch; [3]) was 5.7 fold.

Work on `CN/C(=N/CCSCc1nc[nH]c1C)NC#N` [Cimetidine] yielded a fold induction at 100 µM (gdg6-A8 riboswitch) of 3.

`C#C[C@]1(O)CC[C@H]2[C@@H]3CCC4=Cc5oncc5C[C@]4(C)[C@H]3CC[C@@]21C` [Danazol] showed a fold induction at 100 µM (add-G6 riboswitch; [2]) of 3.7.

Compound `C/C=C(/C(=C/C)c1ccc(O)cc1)c1ccc(O)cc1` [Dienestrol] has a fold induction at 100 µM (gdg6-A8 riboswitch) of 4.3.

For `O=C(Nc1ccccc1)OCC(CN1CCCCC1)OC(=O)Nc1ccccc1` (centres unmarked) [Diperodon hydrochloride], the fold induction at 100 µM (gdg6-A8 riboswitch) was 3.

`Fc1ccc(C(c2ccc(F)cc2)N2CCN(C/C=C/c3ccccc3)CC2)cc1` [Flunarizine dihydrochloride] gave a fold induction at 100 µM (add-G6 riboswitch; [2]) of 4.7.

Work on `Clc1cc(Cl)c(OCC#CI)cc1Cl` [Haloprogin] yielded a fold induction at 100 µM (xpt-G17 riboswitch; Homo sapiens) of 5.1 and a fold induction at 100 µM (add-G6 riboswitch; [2]) of 5.9.

`C#C[C@]1(O)CC[C@H]2[C@@H]3CCC4=CCCC[C@@H]4[C@H]3CC[C@@]21C` [Lynestrenol] gave a fold induction at 100 µM (add-G6 riboswitch; [2]) of 3.8.

Work on `O=C(COc1ccccc1)Nc1nc2nc[nH]c2c(=O)[nH]1` [N2-Phenoxyacetyl guanine] yielded a fold induction at 500 µM (xpt-G17 riboswitch; Homo sapiens, HEK293, 24 h, xpt-G17 construct, 500 μM concentration, FIG. 1c, 1d, read-out: fold induction of luciferase activity by guanine analogs (N2 compounds)) of 1300.

Compound `O=C(Nc1ccc([N+](=O)[O-])cc1Cl)c1cc(Cl)ccc1O` [Niclosamide] has a fold induction at 100 µM (add-G6 riboswitch; [2]) of 3.

Compound `CC(=O)O[C@]1(C(C)=O)CC[C@H]2[C@@H]3C=C(C)C4=CC(=O)CC[C@@H]4[C@H]3CC[C@@]21C` [Nomegestrol acetate] has a fold induction at 100 µM (add-G6 riboswitch; [2]) of 3.5.

With `CC(=O)[C@H]1CC[C@H]2[C@@H]3CCC4=CC(=O)CC[C@]4(C)[C@H]3CC[C@]12C` [Progesterone] the fold induction at 100 µM (xpt-G17 riboswitch; Homo sapiens) was 12, the “response of guanine riboswitch xpt-G17” value (xpt-G17 riboswitch) was “responded” and the fold induction at 100 µM (add-G6 riboswitch; [2]) was 6.

`CNCCCC1c2ccccc2C=Cc2ccccc21` [Protriptyline hydrochloride] was tested, and the fold induction at 100 µM (add-G6 riboswitch; [2]) was 5.

For `CN1CCc2cccc3c2[C@H]1Cc1ccc(O)c(O)c1-3.CN1CCc2cccc3c2[C@H]1Cc1ccc(O)c(O)c1-3.Cl.Cl.O` [R(−)Apomorphine hydrochloride hemihydrate], the “Fold Induction of luciferase activity” value (add-G6 riboswitch; [3]) was 3.4 fold.

Compound `Clc1ccc(C(Cn2ccnc2)OCc2csc3c(Cl)cccc23)c(Cl)c1` (centres unmarked) [Sertaconazole Nitrate] has a fold induction at 100 µM (add-G6 riboswitch; [2]) of 6.5.

`[H]/N=C(/N)NS(=O)(=O)c1ccc(N)cc1` [Sulfaguanidine] was tested, and the fold induction at 100 µM (ydhl-G8 riboswitch; [1]) was 13.9.

`COc1ccc2[nH]c([S+]([O-])Cc3ncc(C)c(OC)c3C)nc2n1` (centres unmarked) [Tenatoprazole] showed a fold induction at 100 µM (xpt-G17 riboswitch; Homo sapiens) of 3.2.

For `CCC(=O)O[C@H]1CC[C@H]2[C@@H]3CCC4=CC(=O)CC[C@]4(C)[C@H]3CC[C@]12C` [Testosterone propionate], the fold induction at 100 µM (xpt-G17 riboswitch; Homo sapiens) was 29, the “response of guanine riboswitch xpt-G17” value (xpt-G17 riboswitch) was “responded” and the fold induction at 100 µM (add-G6 riboswitch; [1]) was 8.8.

`CCCCNc1ccc(C(=O)OCCN(C)C)cc1` [Tetracaine hydrochloride] showed a fold induction at 100 µM (ydhl-G8 riboswitch; [1]) of 3.6.

With `Nc1nc2nc[nH]c2c(=S)[nH]1` [Thioguanine] the “response of guanine riboswitch xpt-G17” value (xpt-G17 riboswitch) was “responded”.

With `CN(C)CCOC1=Cc2ccccc2Sc2ccc(Cl)cc21` [Zotepine] the fold induction at 100 µM (xpt-G17 riboswitch; Homo sapiens) was 4.3.

With Avermectin B1 the “Fold Induction of luciferase activity” value (add-G6 riboswitch; [3]) was 11.8 fold.

With Meclocycline sulfosalicylate the “Fold Induction of luciferase activity” value (add-G6 riboswitch; [3]) was 3.4 fold.

For Methotrimeprazine maleate salt, the “Fold Induction of luciferase activity” value (gdg6-A8 riboswitch; 100 µM) was 5.0 fold.

Tyloxapol was tested, and the “Fold Induction of luciferase activity” value (xpt-G17 riboswitch; 100 µM) was 16.2 fold and the “response of guanine riboswitch xpt-G17” value (xpt-G17 riboswitch) was “responded”.

— patent publication US11371077B2, “High throughput cell-based screening for aptamers” (MeiraGTx UK II Limited, priority 2016, dated 2022)
